Measured values reported in patent US5652366A, “DI (1R)-(-)camphosulfonic acid) salt, preparation thereof and use thereof” (Rhone-Poulenc Rorer Pharmaceuticals Inc., priority 1995, dated 1997).
Like-named read-outs stand apart in the source and are kept apart here.

What was measured:
[1] = system: normotensive anesthetized rat; experiment: In vivo mean arterial pressure and heart rate in normotensive anesthetized rat; details: iv
Protocol: Normotensive rats were anesthetized with sodium pentobarbital (50 mg/kg, j.p.) and placed on a heated surgical table. Cannulas were inserted into the femoral artery and […] to allow the measurement of arterial pressure and to facilitate the intravenous administration of test compounds. The animals was allowed to equilibrate for 10 minutes after surgery. Mean arterial pressure was continuously measured and recorded and heart rate was monitored using the arterial pressure pulse to trigger a cardiotachometer. After baseline parameters were established and recorded, increasing doses (1, 3, 10, 30, 100, 300 and 1000 μg/kg) of the compound of the invention to be tested were administered intravenously. Maximal changes in the cardiovascular parameters were observed after each dose of the adenosine agonist. Only one compound was administered per rat.

[2] = system: spontaneously hypertensive rat (SHR); experiment: Oral antihypertensive activity in conscious spontaneously hypertensive rat (SHR); type: in vivo
Protocol: The oral antihypertensive activity of compounds of the invention were examined in conscious spontaneously hypertensive rats. The rats were anesthetized with sodium pentabarbatol (50 mg/kg i.p.). A telemetry transducer was implanted into the rats abdomen via midline incision. The cannula of the transducer was inserted into the abdomenal aorta to allow direct measurement of arterial pressure in the conscious SHR. The transducer was secured to the abdomenal wall. After recovery from surgery (minimum of seven days), the SHR were placed on a receiver plate and the transducer/transmitter was activated. Systolic, diastolic and mean arterial pressure and heart rate were recorded for 1.5 hours in the unrestrained conscious rat to establish a stable baseline. Each rat then received a single dose of the compound of the invention to be tested, or vehicle, and changes in arterial pressure and heart rate were monitored for 20 hours and recorded.

[3] = system: swine coronary arteries; experiment: In vitro vasorelaxation in isolated swine coronary arteries (PGF2α-contracted rings); type: cell-based; details: Sus scrofa; 50% reduction in tension, 3 μM PGF2α; Table II; read-out: Vasorelaxation in Swine Coronary Artery/IC50
Protocol: Swine coronary arteries were obtained from a local slaughter house, dissected carefully and cleaned of fat, blood and adhering tissue. Rings approximately 2-3 mm wide were cut and transferred to water-jacketed tissue baths (10 ml) filled with warm (37° C.), oxygenated (O2 /CO2 :95%/5%) Krebs-Henseleit buffer and mounted on L-shaped hooks between stainless steel rods and a force transducer. […] Rings were equilibrated for 90 minutes with frequent buffer changes at a resting tension of 5 g In order to assure optimal tension development, arterial rings were primed twice with 36 mM KCl and once with 10 μm. PGF2α, before being exposed to 3 μM PGF2α. […] Tension achieved with 3 μM PGF2α was considered .equivalent to 100%; all other values were expressed as a percentage of that maximum.

[4] = molecular target: T1, A1 adenosine receptor (Rattus norvegicus, UniProt P25099); experiment: biochemical; details: rat whole brain membranes, 3H-CHA; Table II; read-out: Adenosine Receptor Binding Activity/IC50 (nM) A1
T1 sequence (P25099 1-326): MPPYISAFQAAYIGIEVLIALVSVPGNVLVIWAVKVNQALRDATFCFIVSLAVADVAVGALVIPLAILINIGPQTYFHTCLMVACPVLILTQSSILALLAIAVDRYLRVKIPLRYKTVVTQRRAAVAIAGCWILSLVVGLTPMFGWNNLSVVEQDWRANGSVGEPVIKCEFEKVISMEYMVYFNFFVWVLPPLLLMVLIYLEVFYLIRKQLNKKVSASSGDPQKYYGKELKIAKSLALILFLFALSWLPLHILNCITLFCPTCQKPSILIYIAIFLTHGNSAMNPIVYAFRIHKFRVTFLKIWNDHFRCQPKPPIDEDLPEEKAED
Protocol: Non-specific binding was assessed in the presence of 1 mM theophylline.
The assays were run in glass test tubes in duplicate at 25° C. Once the membranes were added, the tubes were vortexed and incubated at 25° C. for 60 minutes (A1 assay) or 90 minutes (A2 assay) on a rotary shaker. The assay tubes were vortexed halfway through the incubation and again near the end. The assays were terminated by rapid filtration through 2.4 cm GF/B filters using a Brandel Cell Harvestor. The test tubes were washed three times with cold 50 mM tris-HCl (pH 7.7 or 7.4), with filtration being completed within 15 seconds. The damp filter circles were placed in glass scintillation vials filled with 10 ml of Aquasol II (New England Nuclear). The vials were allowed to shake overnight on a rotary shaker and were placed into a liquid scintillation analyzer for two minute counts. IC50 values for receptor binding, i.e. the concentration at which a compound of the invention displaced the radiolabeled standard, were obtained using a curve-fitting computer program (RS/1, Bolt, Beranek and Newman, Boston, Mass.).

[5] = molecular target: A2 adenosine receptor (Rattus norvegicus, UniProt P30543); experiment: biochemical; details: rat brain striatum membranes, 3H-CGS 21680; Table II; read-out: Adenosine Receptor Binding Activity/IC50 (nM) A2
[6] = system: rat adipocytes; experiment: In vitro lipolysis assay in rat adipocytes (glycerol production); type: cell-based; details: Rattus norvegicus, Adipocyte; for EC50: read-out: EC50 (50% inhibition of glycerol production), unit nM in cell
Protocol: Adipose tissue is removed from anesthetized rats and rinsed twice in incubation medium (2.09 g sodium bicarbonate and 0.04 g EDTA, disodium salt, in 1 L Krebs buffer). Each rat (300-350 g) yields approximately 4 ml of adipose tissue. The adipose tissue (35 ml) is cut into small pieces with scissors and washed with incubation medium (50 ml). The mixture is poured into the barrel of a 50 ml syringe to which is attached a short piece of clamped tubing instead of a needle. The aqueous phase is allowed to drain. A second wash with incubation medium is passed through the syringe. The tissue is added to 50 ml of collagenase solution (collagenase(90 mg), bovine serum albumin (BSA) (500 mg), and 0.1 M calcium chloride solution (1 ml), in incubation medium (50 ml)) in a 1 L bottle. The mixture is shaken in an environmental at 37° C. for about 60 minutes under an atmosphere of 95% oxygen/5% carbon dioxide to effect digestion of the tissue. The dispersed cells are poured through 2 layers of cheese cloth into a 100 ml plastic beaker. The undigested clumps in the cloth are rinsed once with incubation medium (20 ml). The cells in the beaker are centrifuged in 2 plastic tubes for 30 seconds at room temperature at 300 rpm. The aqueous phase is aspirated from beneath the loosely packed layer of floating fat cells and discarded. The adipocytes are gently poured into a 250 ml plastic beaker containing 100 ml of rinse solution (1 g BSA per 100 ml incubation medium). After gentle stirring the centrifugation step is repeated. Another wash with rinse solution follows. The cells are pooled and their volume is estimated with a graduated cylinder. The adipocytes are diluted in twice their volume of assay buffer (incubation medium (120 ml), BSA (1.2 g), pyruvic acid (13 mg)).
The assay is performed in 20 ml plastic scintillation vials and the total assay volume is 4.2 ml. Assay buffer (2.5 ml), diluted adipocytes (1.5 ml), and a solution of the compound to be tested (12.3 μL) adenosine agonist (12.3 μl; varying concentration) is incubated in the environmental shaker for 15 minutes, then the reaction is started with norepinephrine solution (41.2 μL) (10 nM, in a carrier solution containing water (100 ml), BSA (4 mg), and 0.1 M EDTA (20 I. LL))and adenosine deaminase (1 μg/ml, 41.2 μl). After sixty minutes in the shaker the reaction is terminated by putting the vials on ice. […] The hard lipid layer is removed by aspiration and the aqueous layer is assayed for glycerol (400 μl of sample). The positive control is done in the absence of any adenosine agonist, substituting water in place of the solution to be tested.

[7] = dose lowering heart rate by 25%, read-out: Blood Press/Heart Rate Anesthetized Rat HR/ED25
[8] = dose lowering mean arterial pressure by 25%, read-out: Blood Press/Heart Rate Anesthetized Rat MAP/ED25

Sequence of A2 adenosine receptor (P30543 whole entry): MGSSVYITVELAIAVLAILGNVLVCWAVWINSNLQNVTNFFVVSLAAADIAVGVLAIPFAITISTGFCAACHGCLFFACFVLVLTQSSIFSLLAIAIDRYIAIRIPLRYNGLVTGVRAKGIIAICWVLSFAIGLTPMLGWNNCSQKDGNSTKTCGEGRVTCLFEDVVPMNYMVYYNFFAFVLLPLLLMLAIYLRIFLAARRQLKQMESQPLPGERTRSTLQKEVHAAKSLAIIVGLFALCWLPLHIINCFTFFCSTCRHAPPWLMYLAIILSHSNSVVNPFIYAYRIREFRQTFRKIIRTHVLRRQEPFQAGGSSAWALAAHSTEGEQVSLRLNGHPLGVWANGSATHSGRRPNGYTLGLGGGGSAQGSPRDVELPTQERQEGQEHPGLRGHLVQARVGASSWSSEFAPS

| SMILES | ED25 [1, 7] [mg/kg] | ED25 [1, 8] [mg/kg] | SHR MAP/% ([2]; 5 mg/kg, D = decrease) [%] | SHR HR/% ([2]; 5 mg/kg, I = increase) [%] | EC50 [3] [nM] | SHR MAP/% ([2]; 1 mg/kg, D = decrease) [%] | SHR HR/% ([2]; 1 mg/kg, I = increase) [%] | SHR HR/% ([2]; 5 mg/kg, D = decrease) [%] | IC50 [4] [nM] | IC50 [5] [nM] | SHR MAP/% ([2]; 2.5 mg/kg, D = decrease) [%] | SHR HR/% ([2]; 2.5 mg/kg, I = increase) [%] | EC50 [6] [nM] | inhibition at 1 µM ([6]; 1 μM, versus positive control, read-out: % Inhibition of glycerol production) [%] |
| --- | --- | --- | --- | --- | --- | --- | --- | --- | --- | --- | --- | --- | --- | --- |
| CCNC(=O)[C@H]1C[C@@H](n2cnc3c(NCCc4scnc4C)ncnc32)[C@H](O)[C@@H]1O (relative stereo) [Example 24, (±)-N^6-[2-(4"-methyl-5"-thiazolyl)thyl]carbocyclic adenosine-5'-N-ethyl carboxamide] | > 0.01 | 0.006 | 17 | 6 | – | – | – | – | – | – | – | – | – | – |
| CCNC(=O)[C@H]1C[C@@H](n2cnc3c(N[C@H](C)Cc4cccs4)ncnc32)[C@H](O)[C@@H]1O (single isomer, unassigned) [Example 27] | – | – | – | – | 43 | 27 | 1 | – | – | – | – | – | – | – |
| OC[C@H]1O[C@@H](n2cnc3c(N[C@@H]4CCCC[C@H]4c4cccs4)ncnc32)[C@H](O)[C@@H]1O (relative stereo) [Example 7, N^6-[trans-2-(thiophen-2-yl)-cyclohex-1-yl]adenosine] | 0.018 | 0.006 | 45 | – | 4000 | – | – | 22 | – | – | – | – | – | – |
| CCNC(=O)[C@H]1C[C@@H](n2cnc3c(NCCc4cccs4)ncnc32)[C@H](O)[C@@H]1O [Example 26, (-)-N^6-[(thiophen-2"-yl)ethan-2-yl]carbocyclic adenosine-5'-N-ethyl carboxamide] | > 0.03 | 0.004 | – | – | 82 | – | – | – | 87.1 | 63.1 | 41 | 3 | 89 | 96 |
| CCNC(=O)[C@H]1C[C@@H](n2cnc3c(N[C@H](C)Cc4ccc(Cl)s4)ncnc32)[C@H](O)[C@@H]1O [Example 6, (-)-[2S-[2α,3α-dihydroxy-4-β-[N6-[2-(5-chloro-2-thienyl)-(1R)-1-methylethyl]amino]-9-adenyl]cyclopentane]-1-β-N-ethylcarboxamide] | – | – | – | – | 21 | 18 | 7 | – | 2.69 | 12.9 | – | – | 0.76 | – |
| OC[C@H]1O[C@@H](n2cnc3c(N[C@@H]4CC=CC[C@H]4c4cccs4)ncnc32)[C@H](O)[C@@H]1O (relative stereo) [Example 4, N6-[trans-2-(thiophen-2-yl)cyclohex-4-en-yl]adenosine] | 0.019 | 0.013 | 28 | – | 730 | – | – | 20 | – | – | – | – | – | – |
| OC[C@H]1O[C@@H](n2cnc3c(NCCNc4nc5ccccc5s4)ncnc32)[C@H](O)[C@@H]1O [Example 9, N^6-[2-(2'-aminobenzothia-zolyl)ethyl]adenosine] | 0.004 | 0.005 | – | – | 11900 | – | – | – | 4 | 1000 | – | – | – | – |
| CCNC(=O)[C@H]1C[C@@H](n2cnc3c(NCCNc4nc5ccccc5s4)ncnc32)[C@H](O)[C@@H]1O (relative stereo) [Example 29, (±)-N^6-[2-(2'-aminobenzothia-zolyl)ethyl]carbocyclic adenosine-5'-N-ethyl carboxamide] | 0.031 | 0.016 | 18 | – | 22000 | – | – | 12 | 35.5 | > 1000 | – | – | – | – |
